Structures are written as SMILES.

The nature of data set [1]: Plasma concentration after oral administration. The class given is in vivo, SD male rats. The conditions noted are these: 10 mg/kg oral, suspended in 5% gum arabic, HPLC. How it is done:
A test compound (10 mg/kg) suspended in 5% gum arabic solution was forcibly administered orally to SD male rats weighing 200-250 g. At 0.5, 1, 3, 5 and 8 hours after administration, blood was taken without anesthesia and heparinized plasma was separated by conventional method. The concentration of the test compound in the plasma was determined by high performance liquid chromatography, the results of which are shown in Table 5.

Data set [2] has as its system THP-1 cell-derived macrophages. Briefly: THP-1 cell-derived macrophage foam cell formation suppressing effect (cholesterol ester accumulation inhibitory effect). The class given is cell-based. Conditions: Homo sapiens, THP-1, 72 h, Concentration: 10^-6 M, acetyl LDL, 3 days culture, read-out: foam cell formation inhibitory rate (%). How it is done:
THP-1 (Dainippon Pharmaceutical Co., Ltd.) cells were passage cultured in RPMI-1640 medium supplemented with 10% fetal bovine serum (FBS), and the cells of passages 6-13 after purchase were used. The cells were suspended in FBS-containing RPMI-1640 medium to give a suspension having a concentration of 4×10^5 cells/mL. The cell suspension was inoculated to a 12 well microplate by 1 mL, and treated with phorbol 12-myristate 13-acetate (PMA, 200 nM) as a differentiation inducing agent into macrophage. Then acetyl LDL 400 μg/mL prepared separately from plasma-derived LDL of genetically hyperlipidemia rabbit (KHC rabbit, Japan Laboratory Animals, Inc.) was added. In addition, a test compound dissolved in DMSO and diluted with FBS-containing RPMI-1640 medium or a control solvent was added. After culture in a carbon dioxide incubator for 3 days, the cells were washed with phosphate buffered physiological saline (pH 7.0), and the lipid was extracted with n-hexane/isopropanol (3:2). The cells were dissolved in 1M-NaOH and the protein amount was measured. The free cholesterol and cholesterol ester in a lipid extraction sample was measured by the method of Kunitomo et al. (1983). The cholesterol ester was compared between the control cell and the test compound-treated cells, and the cholesterol ester accumulation inhibitory rate of the test compound was calculated.

The next data set deals with hepatic ACAT. Kind of data set: Hepatic ACAT inhibitory activity (rabbit liver microsomes, [1-14C]-oleoyl CoA). The class given is biochemical, Japanese white rabbits. Conditions: Concentration: 10^-6 M; inhibition of cholesteryl oleate production vs control. How it is done:
A high cholesterol feed [a feed added with cholesterol (1%), Clea Japan, Inc.] was fed to male Japanese white rabbits weighing 2-2.5 kg at 100 g per day and the rabbits were bred for 4 weeks. The rabbits were killed by bleeding under anesthesia and liver was removed. The liver was homogenated, and the homogenate was centrifuged at 4° C. and 10,000 rpm for 15 min. The obtained supernatant was further centrifuged at 4° C. and 41,000 rpm for 60 minutes to give microsomal fractions. The microsomal suspension as an enzyme sample, dimethyl sulfoxide (DMSO, […]) or a test compound dissolved in DMSO (test compound solution 3 μl), and reaction substrate [1-^14C]-oleoyl CoA were added to 0.15 M phosphate buffer to the total amount of 300 μl. After incubation at 37° C. for 20 minutes, a chloroform-methanol mixture was added to stop the reaction. Water was added thereto and mixed, and the chloroform layer was separated. The solvent was evaporated to dryness, and the residue was redissolved in n-hexane. The mixture was subjected to thin layer chromatography using a silica gel plate. The spots of cholesteryl oleate on the silica gel plate were scraped, and quantitatively assayed on lo a liquid scintillation counter.
A general note: Liver microsomes are vesicles of endoplasmic reticulum, rich in cytochrome P450 enzymes.

Data set [3] relates to cholesterol secretion from the liver. Briefly: Mouse hepatic lipid secretion inhibitory effect (Triton WR-1339 method). The class given is in vivo, Slc:ICR mice. The conditions noted are these: 10 mg/kg/day oral, plasma TC change in 3 hr after Triton WR-1339, read-out: Cholesterol secretion inhibitory rate (%). The protocol:
About 5 week-old male Slc:ICR mice (Japan SLC) were fed only in the daytime (9:00-18:00) and preliminarily bred for one week. During this period, free access to tap water was allowed during the nighttime, too. The mice were divided into a control group and a test compound group at 6 mice per group, such that the average and standard deviation of the body weight became almost the same. The blood (ca 80 μL) was drawn from the orbital venous plexus using a glass capillary under anesthesia, and at 30 min after blood drawing, a test compound suspended in 5% gum arabic solution in advance was orally administered at a dose of 10 mg/kg. At 30 min after the administration, Triton WR-1339 60 mg/mL solution prepared with physiological saline in advance was administered to the tail vein at a dose of 5 mL/kg. At 3 hr after the Triton WR-1339 administration, the blood was drawn again from the orbital venous plexus. Plasma was separated from the drawn blood, and plasma TC was measured using a commercially available measurement kit (Wako Pure Chemical Industries, Ltd.). Changes in blood-concentration in 3 hr after Triton WR-1339 administration were calculated and taken as the rate of cholesterol secretion from the liver. The rate of secretion was compared between the control group and the test compound group and the secretion inhibitory rate of the test compound was calculated.

A further data set relates to LDL. Briefly: In vitro LDL peroxidation inhibitory effect (copper sulfate, thiobarbituric acid method). Conditions: Concentration: 10^-5 M; malondialdehyde production, 5 μM copper sulfate, 37° C., 1 hr. It is filed as biochemical, KHC rabbits.

Procedure for LDL: The blood was drawn from the auricular artery of KHC rabbits weighing about 3 kg and LDL was separated by a conventional method. A solution (5 μL) of test compound in DMSO or DMSO was added (final concentration 10^−5 M) to LDL suspension (0.5 mg protein/mL, 0.5 mL), aqueous copper sulfate solution (5 μL, final concentration 5 μM) was added, and the mixture was incubated at 37° C. for 1 hr. After the completion of the incubation, EDTA·2Na solution (5 μL, final concentration 1 mM) was added, and lipoperoxide concentration in the-sample was measured by the Yagi's method. To be specific, lipoperoxide in the sample was color developed by the thiobarbituric acid method, measured as malondialdehyde and the activity of the test compound was shown by malondialdehyde production inhibitory rate (%) [to what level the production of malondialdehyde was inhibited as compared to control].

As for `Cc1c2c(c(NC(=O)C(C)(C)C)c(C)c1NS(C)(=O)=O)N(CC(C)C)CC2` [Example 15, N-[5-methanesulfonylamino-4,6-dimethyl-1-(2-methylpropyl)indolin-7-yl]-2,2-dimethylpropanamide], in data set [1], the “Maximum concentration in blood” value turned out to be 1.68 µg/mL.

On to `CCCN1CCc2c(C)c(NS(C)(=O)=O)c(C)c(NC(=O)C(C)(C)C)c21` [Example 14, N-(5-methanesulfonylamino-4,6-dimethyl-1-propylindolin-7-yl)-2,2-dimethylpropanamide], for which the “Maximum concentration in blood” value in data set [1] is 2.30 µg/mL.

As for `CCCCCN1CCc2c(C)c(NS(N)(=O)=O)c(C)c(NC(=O)C(C)(C)C)c21.Cl` [Example 18, N-(4,6-dimethyl-1-pentyl-5-sulfamoylaminoindolin-7-yl)-2,2-dimethylpropanamide hydrochloride], in data set [2], the inhibition at 1 µM was 93%. Also, the “Hepatic ACAT inhibitory ratio (%)” value in the data set with hepatic ACAT came to 96.7%. The inhibition in vivo at 10 mg/kg in data set [3] is 41.4%.

Regarding `CC(C)(Sc1cc(C(C)(C)C)c(O)c(C(C)(C)C)c1)Sc1cc(C(C)(C)C)c(O)c(C(C)(C)C)c1` [Probucol], the “LDL peroxidation inhibitory ratio (%)” value with LDL is recorded as 33.8%.

For the compound `CCCN1CCc2c(C)c(NS(N)(=O)=O)c(C)c(NC(=O)C(C)(C)C)c21.Cl` [Example 17, N-(4,6-dimethyl-1-propyl-5-sulfamoylaminoindolin-7-yl)-2,2-dimethylpropanamide hydrochloride], the “Hepatic ACAT inhibitory ratio (%)” value with hepatic ACAT is reported as 86.4%. In addition, in data set [3], the inhibition in vivo at 10 mg/kg was 44.4%.

Consider `Cc1c2c(c(NC(=O)C(C)(C)C)c(C)c1NS(C)(=O)=O)N(CCC(C)C)CC2` [Example 13, N-[5-methanesulfonylamino-4,6-dimethyl-1-(3-methylbutyl)indolin-7-yl]-2,2-dimethylpropanamide], for which, in data set [1], the “Maximum concentration in blood” value worked out at 1.36 µg/mL.

Turning to `CCCCCN1CCc2c(C)c(NS(C)(=O)=O)c(C)c(NC(=O)C(C)(C)C)c21` [Example 11, N-(5-methanesulfonylamino-4,6-dimethyl-1-pentylindolin-7-yl)-2,2-dimethylpropanamide], in data set [1], the “Maximum concentration in blood” value was found to be 1.98 µg/mL.

Take `CCCCCCN1CCc2c(C)c(NS(C)(=O)=O)c(C)c(NC(=O)C(C)(C)C)c21` [Example 22, N-(1-hexyl-5-methanesulfonylamino-4,6-dimethylindolin-7-yl)-2,2-dimethylpropanamide]: the “Maximum concentration in blood” value in data set [1] was determined as 1.12 µg/mL.

In the case of `CCN1CCc2c(C)c(NS(C)(=O)=O)c(C)c(NC(=O)C(C)(C)C)c21` [Example 16, N-(1-ethyl-5-methanesulfonylamino-4,6-dimethylindolin-7-yl)-2,2-dimethylpropanamide], the “Maximum concentration in blood” value in data set [1] came out at 2.90 µg/mL.

For `Cc1c2c(c(NC(=O)C(C)(C)C)c(C)c1NS(C)(=O)=O)N(C1CCCC1)CC2` [Example 41, N-(1-cyclopentyl-5-methanesulfonylamino-4,6-dimethylindolin-7-yl)-2,2-dimethylpropanamide], the inhibition at 1 µM in data set [2] is 76.5%. Besides, the “Hepatic ACAT inhibitory ratio (%)” value with hepatic ACAT is 97.3%. The inhibition in vivo at 10 mg/kg in data set [3] was found to be 58.5%. For the same compound, the “Maximum concentration in blood” value in data set [1] was 2.03 µg/mL.

Take `CCCN1c2c(c(C)c(NS(N)(=O)=O)c(C)c2NC(=O)C(C)(C)C)CC1C.Cl` (stereo not shown) [Example 53, N-(2,4,6-trimethyl-1-propyl-5-sulfamoylaminoindolin-7-yl)-2,2-dimethylpropanamide hydrochloride]: the inhibition at 1 µM in data set [2] stood at 70%. The “Maximum concentration in blood” value in data set [1] stood at 1.31 µg/mL.

Turning to `CCCCN1CCc2c(C)c(NS(C)(=O)=O)c(C)c(NC(=O)C(C)(C)C)c21` [Example 12, N-(1-butyl-5-methanesulfonylamino-4,6-dimethylindolin-7-yl)-2,2-dimethylpropanamide], the “Maximum concentration in blood” value in data set [1] stood at 3.05 µg/mL.

The record behind these values is patent US7429612B2, “Indoline compound and medicinal use thereof” (Kyoto Pharmaceutical Industries, Ltd., priority 2002, dated 2008).
